# Results as given in US11518759B1, “Protacs based on VHL ligand targeting coronavirus 3CL protease and preparation method and application thereof” (SHAANXI PANLONG PHARMACEUTICAL CO., LTD., priority 2022, dated 2022).
# pIC50: −log10 of the molar value. Read-outs that look alike come from different tables or passages of the source.
# Assays:
# SARS-CoV-2 3CL^pro [1] = biological target: T1, SARS-CoV-2 3CL^pro (Severe acute respiratory syndrome coronavirus 2 (2019-nCoV) (SARS-CoV-2), UniProt P0DTD1); assay: biochemical; settings: FRET
# SARS-CoV-2 3CL^pro [2] = biological target: T1, SARS-CoV-2 3CL^pro; type: cell-based; settings: 24 h, Western Blot
smiles,measurement,setting,value
Cc1ncsc1-c1ccc(CNC(=O)[C@@H]2C[C@@H](O)CN2C(=O)[C@@H](NC(=O)COCCOCCn2cc(Cn3c(=O)[nH]/c(=N\c4cc5cn(C)nc5cc4Cl)n(Cc4cc(F)c(F)cc4F)c3=O)nn2)C(C)(C)C)cc1 [Compound 8],pIC50,"SARS-CoV-2 3CL^pro [1]; SARS-CoV-2 3CLpro 0.5 μM, substrate 20 μM, class symbols, read-out: IC50",> 7.00
same,pIC50,"SARS-CoV-2 3CL^pro [1]; bound stated, read-out: IC50 values on 3CL^pro",> 7.00
same,DC50,"SARS-CoV-2 3CL^pro [2]; HEK293E cells transfected with 3CLpro plasmid, class symbols",< 100 nM
same,DC50,"SARS-CoV-2 3CL^pro [2]; read-out: DC50 values for 3CL^pro, HEK293E cells, bound stated",< 100 nM
